Patent US20080234336A1, “Synergistic Imazalil Combinations” (priority 2005, published 2008)

Tests used:
Assay type in all cases: cell-based
[1] = tested on: Geotrichum candidum (Gca); assay: Poison plate assay (Experiment 2), fungal growth and Limpel synergy
Description: (§1) Name of the primary compound: imazalil (I) Formulations: (% is in w/v)
• Stock solution: 2000 ppm (w/w) • Solvent for dilutions: demineralised water • Fungal species: post harvest and seed pathogens: Geotrichum candidum (Gca) and Penicillium digitatum (Pdi) Calculated amounts of dilutions were poured into multi-well plates. Culture medium was added aseptically and uniform distribution was obtained by shaking. […] The expected activity E of a combination of active ingredients was calculated by using Limpel's formula (Richter, D. L; Pesticide Science 1987, 19: 309-315): • E=A+B−(A*B)/100 wherein A and B express the activities obtained for each of the active ingredients when applied alone. A synergistic effect is acknowledged if the measured activity M exceeds the calculated (expected) activity E (synergy indicated by figures in bold).

[2] = tested on: Penicillium digitatum (Pdi); assay: as above; details: Table 6, Pdi; imazalil 0.02 ppm, combinations 0.02 + 0.02 ppm; conc 0 for carpropamid and fosetyl-Al alone
Description: as §1
• Stock solution: 2000 ppm (w/w) • Solvent for dilutions: demineralised water • Fungal species: post harvest and seed pathogens: Geotrichum candidum (Gca) and Penicillium digitatum (Pdi) Calculated amounts of dilutions were poured into multi-well plates. Culture medium was added aseptically and uniform distribution was obtained by shaking. The plates were inoculated with the test fungi and incubated during a period long enough to allow complete outgrowth of controls. • Test concentrations: noted in ppm versus growth medium (w/v): see tables • Replicates: 4 • Culture medium: PDA (Potato Dextrose Agar) • Culture conditions: 22° C. and 60% relative humidity • Inoculation: with a small piece of agar from the margin of an actively growing culture or a suspension of spores, mycelium or culture • Evaluation date: at complete outgrowth of control • Synergy calculation: Diameter of fungal growth (in mm) was measured, mean radial growth (X) and measured activity (M) were calculated. The expected activity E of a combination of active ingredients was calculated by using Limpel's formula (Richter, D. L; Pesticide Science 1987, 19: 309-315): • E=A+B−(A*B)/100 wherein A and B express the activities obtained for each of the active ingredients when applied alone. A synergistic effect is acknowledged if the measured activity M exceeds the calculated (expected) activity E (synergy indicated by figures in bold).

[3] = tested on: Gloeosporium album; assay: Poison plate assay (Experiment 1), MIC and Synergy Index; details: PDA, 27° C., evaluation after two days, ppm total active ingredient; for MIC: Phlyctema vagabunda, 48 h, read-out: MIC-values (minimum inhibitory concentration) in ppm
Excerpt: (§2) Name of the primary compound: • imazalil (I) Name of the combination partners: • boscalid (II-a) • cyproconazole (II-b) • pyraclostrobin (II-c) • triflumizole (II-d) Stock solution: 1000 ppm in DMSO
(§3) • Concentrations of total active ingredient in the combinations: a series of concentrations increasing with steps of 1/3: 0.21-0.28-0.38-0.50-0.67-0.89-1.19-1.58-2.11-2.81-3.75-5.00-6.67-8.90-11.87-15.82-21.09-28.13-37.50-50.00 ppm • Culture medium: Potato Dextrose Agiar (PDA): 4 g potato infusion, 20 g bacto dextrose and 15 g bacto agar in 1 liter deionised water • Experimental set up: 24-well plates
(§4) • Inoculum: a spore/mycelium suspension (2 μl) or a piece of agar from the margin of an actively growing colony • Culture conditions: 27° C., 70% relative humidity, dark. • Evaluation: Evaluation after two days. Synergism between component (I) and one of the components (II) was determined by a commonly used and accepted method described by Kull F. C. et al. in Applied Microbiology, 9, 538-541 (1961) using the Synergy Index, which is calculated as follows for two compounds A and B: […]
(§5) wherein: • QA is the concentration of compound A in ppm, acting alone, which produced an end point (e.g. MIC), • Qa is the concentration of compound A in ppm, in the mixture, which produced an end point (e.g. MIC), • QB is the concentration of compound B in ppm, acting alone, which produced an end point (e.g. MIC), • Qb is the concentration of compound B in ppm, in the mixture, which produced an end point (e.g. MIC). When the Synergy Index is greater than 1.0, antagonism is indicated.

[4] = tested on: Rhizoctonia solani; assay: as above; details: PDA, 27° C., evaluation after two days, ppm total active ingredient; for MIC: 48 h, read-out: MIC-values (minimum inhibitory concentration) in ppm
Excerpt: as §2, §3, §4, §5

[5] = tested on: Colletotrichum musae; assay: as above; details: PDA, 27° C., evaluation after two days, ppm total active ingredient; for MIC: 48 h, read-out: MIC-values (minimum inhibitory concentration) in ppm
Excerpt: as §2, §3, §4, §5

[6] = tested on: Geotrichum candidum; assay: as above; details: 48 h, PDA, 27° C., evaluation after two days, ppm total active ingredient, read-out: MIC-values (minimum inhibitory concentration) in ppm
Excerpt: as §2, §3, §4, §5

[7] = Table 7, Gca, conc 60 μM (tetraconazole 6 μM), combinations 60 + 60, (I) + (II-i) 60 + 6
[8] = Table 7, Gca, conc 70 μM (tetraconazole 7 μM), combinations 70 + 70, (I) + (II-i) 70 + 7
[9] = Table 5, Gca, conc 20 ppm each (combinations 20 + 20)
[10] = Table 5, Gca, conc 25 ppm each (combinations 25/25)

CSC(=O)c1cccc2nnsc12 [acibenzolar-S-me (II-e), benzo[1,2,3]-thiadiazole-7-carbothioic acid S-methyl ester]
M = measured activity [1, 7]: 7 | X = mean fungal growth [1, 7]: 14 mm | M = measured activity [1, 8]: 3 | X = mean fungal growth [1, 8]: 15 mm

CCC1(C(=O)NC(C)c2ccc(Cl)cc2)C(C)C1(Cl)Cl (stereo not drawn) [carpropamid (II-f), 2,2-dichloro-N-[1-(4-chlorophenyl)ethyl]-1-ethyl-3-methyl-cyclopropanecarboxamide]
M = measured activity [2]: 0 | X = mean fungal growth [2]: 15 mm

CCC(C)(NC(=O)c1cc(Cl)c(C)c(Cl)c1)C(=O)CCl (stereo not drawn) [zoxamide (II-j), 3,5-dichloro-N-(3-chloro-1-ethyl-1-methyl-2-oxopropyl)-4-methyl-benzamide]
M = measured activity [1, 7]: 0 | X = mean fungal growth [1, 7]: 15 mm | M = measured activity [1, 8]: 2 | X = mean fungal growth [1, 8]: 15 mm

(E)-4-chloro-ααα-trifluoro-N-(1-imidazol-1-yl-2-propoxyethylidene)-o-toluidine [triflumizole]
MIC-values (minimum inhibitory concentration) in ppm [3]: 6.67 ppm | MIC-values (minimum inhibitory concentration) in ppm [4]: 37.50 ppm | MIC-values (minimum inhibitory concentration) in ppm [5]: 28.13 ppm

C=CCOC(Cn1ccnc1)c1ccc(Cl)cc1Cl (stereo not drawn) [imazalil]
M = measured activity [1, 9]: 38 | X = mean fungal growth [1, 9]: 9 mm | M = measured activity [1, 10]: 50 | X = mean fungal growth [1, 10]: 7 mm | M = measured activity [1, 7]: 7 | X = mean fungal growth [1, 7]: 14 mm | M = measured activity [1, 8]: 68 | X = mean fungal growth [1, 8]: 5 mm | MIC [3]: 1.58 mg/L | MIC [4]: 50 mg/L | MIC [6]: 66.7 mg/L | MIC [5]: 8.9 mg/L | M = measured activity [2]: 88 | X = mean fungal growth [2]: 2 mm

CC(C1CC1)C(O)(Cn1cncn1)c1ccc(Cl)cc1 (stereo not drawn) [cyproconazole, α-(4-chloro-phenyl)-α-(1-cyclopropyl-ethyl)-1H-1,2,4-triazole-1-ethanol]
MIC [3]: 2.81 mg/L | MIC [4]: 11.9 mg/L | MIC [6]: 6.67 mg/L | MIC [5]: 66.7 mg/L

FC(F)C(F)(F)OCC(Cn1cncn1)c1ccc(Cl)cc1Cl (stereo not drawn) [tetraconazole (II-i), 1-[2-(2,4-dichloro-phenyl)-3-(1,1,2,2-tetrafluoroethoxy)propyl]-1H-1,2,4-triazole]
M = measured activity [1, 9]: 36 | X = mean fungal growth [1, 9]: 9 mm | M = measured activity [1, 10]: 45 | X = mean fungal growth [1, 10]: 8 mm | M = measured activity [1, 7]: 15 | X = mean fungal growth [1, 7]: 13 mm | M = measured activity [1, 8]: 3 | X = mean fungal growth [1, 8]: 15 mm

COC(=O)N(OC)c1ccccc1COc1ccn(-c2ccc(Cl)cc2)n1 [pyraclostrobin, methyl N-(2-[1-(4-chlorophenyl)-1H-pyrazol-3-yloxymethyl]phenyl](N-methoxy)carbamate]
MIC [3]: 66.7 mg/L | MIC [4]: 66.7 mg/L | MIC [5]: 66.7 mg/L
